These results are taken from ChEMBL document CHEMBL1128833, “Aliphatic replacements of the biphenyl moiety of the nonpeptidyl growth hormone secretagogues L-692,429 and L-692,585” (1995).

The structures appear in SMILES notation.

One assay is filed under the species Rattus norvegicus. Description: In vitro Growth hormone releasing activity in rat pituitary cells. It counts as functional, Pituitary gland cell. The following applies: Rattus norvegicus, Pituitary gland cell; read-out: ED50 (the source's name).
As to `CC(C)(N)CC(=O)N[C@@H]1CCc2ccccc2N(Cc2ccccc2)C1=O`, the EC50 turned out to be 7000 nM. For the molecule `CC(C)(N)CC(=O)N[C@@H]1CCc2ccccc2N(CC2CCC(c3ccccc3-c3nn[nH]n3)CC2)C1=O` (stereo partly specified), the EC50 came out at 860 nM. For the molecule `CC(C)(N)CC(=O)N[C@@H]1CCc2ccccc2N(Cc2ccc(-c3ccccc3)cc2)C1=O`, the EC50 stood at 3000 nM.

In the case of `CC(C)(N)CC(=O)N[C@@H]1CCc2ccccc2N(Cc2ccc(-c3ccccc3-c3nn[nH]n3)cc2)C1=O`, the EC50 came out at 60 nM.

Take `C[C@@H](O)CNC(C)(C)CC(=O)N[C@@H]1CCc2ccccc2N(CC2CCC(c3ccccc3-c3nn[nH]n3)CC2)C1=O` (stereo partly specified): the EC50 was 75 nM. On the same count and under the same terms, the same measure for `C[C@@H](O)CNC(C)(C)CC(=O)N[C@@H]1CCc2ccccc2N(Cc2ccc(-c3ccccc3-c3nn[nH]n3)cc2)C1=O` [L-692585]: 3 nM.

Still in this assay, the particulars now being: read-out: ED50 (the source's name).
Take `CC(C)(N)CC(=O)N[C@@H]1CCc2ccccc2N(CC2=CCC(c3ccccc3-c3nn[nH]n3)CC2)C1=O` (stereo in doubt; 34): the EC50 is 1200 nM. In the case of `CC(C)(N)CC(=O)N[C@@H]1CCc2ccccc2N(CC2=CCC(c3ccccc3-c3nn[nH]n3)CC2)C1=O` (stereo in doubt; 35), the EC50 stood at 120 nM.

`C[C@@H](O)CNC(C)(C)CC(=O)N[C@@H]1CCc2ccccc2N(CC2=CCC(c3ccccc3-c3nn[nH]n3)CC2)C1=O` (stereo in doubt; 36): the EC50 was found to be 25 nM. The same measure, in the same setting: next, `C[C@@H](O)CNC(C)(C)CC(=O)N[C@@H]1CCc2ccccc2N(CC2=CCC(c3ccccc3-c3nn[nH]n3)CC2)C1=O` (stereo in doubt; 37): 7 nM.

The species named for a further assay is Rattus norvegicus. Nature of the assay: In vitro Growth hormone releasing activity in rat pituitary cells; weakly active at 1 uM. It counts as functional. To be noted: Pituitary gland cell, read-out: ED50 (the source's name).
On to `CC(C)(N)CC(=O)N[C@@H]1CCc2ccccc2N(Cc2ccc(-c3ccccc3)c(-c3nn[nH]n3)c2)C1=O`, for which the EC50 was more than 1000 nM.
